One compound from patent publication US6262086A, “Pharmaceutical unit dosage form” (priority 2000, dated 2001) can be followed below.

The nature of the series: Solubility assessment as a function of HPβCD concentration. Format: physicochemical. The protocol:
Solubility studies were performed by the addition of a known mass of 5(6)-methoxy-2-[[(4-methoxy-3,5-dimethyl-2-pyridinyl)-methyl]sulfinyl]-1H- benzimidazole and/or HPβCD to a given volume of solvent system. Solubilities were determined by observation, as the maximum concentration at which 5(6)-methoxy-2-[[(4-methoxy-3,5-dimethyl-2-pyridinyl)-methyl]sulfinyl]-1H- benzimidazole completely dissolved. Additionally, concentrations of 5(6)-methoxy-2-[[(4-methoxy-3,5-dimethyl-2-pyridinyl)-methyl]sulfinyl]-1H- benzimidazole and HPβCD at set molar ratios were solubilized in systems of high pH (adjusted as high as 12.2, with 1N NaOH), the pH was adjusted (using 2N HCl) in a stepwise downward manner until precipitation occurred.
The solubility of 5(6)-methoxy-2-[[(4-methoxy-3,5-dimethyl-2-pyridinyl)-methyl]sulfinyl]-1H- benzimidazole was assessed as a function of HPβCD concentration in water.
The procedure according to Example 86 was repeated except that water with a borate buffer (pH of 8) was employed.
The procedure according to Example 86 was repeated except that water with a phosphate buffer (pH of 11) was employed.

Values joined by “and” are separate entries in the source; they are usually repeats but may differ in a detail not shown here. Equal values may be shown once.

A word on the solubility: it is the concentration that dissolves in the medium under given conditions. Take `COc1ccc2[nH]c([S+]([O-])Cc3ncc(C)c(OC)c3C)nc2c1` (stereo not drawn) [5(6)-methoxy-2-[[(4-methoxy-3,5-dimethyl-2-pyridinyl)-methyl]sulfinyl]-1H-benzimidazole]: the “dependence of solubility on HPβCD concentration” value by setting is: (water with a borate buffer (pH of 8)) “increase linearly as a function of HPβCD concentration”; (water with a phosphate buffer (pH of 11)) “increase linearly as a function of HPβCD concentration”. Moreover, the solubility (water, read-out: aqueous solubility in water) was ~300 µg/mL and ~900 µM.
